In patent publication US8138191B2, “Inhibitor compounds and cancer treatment methods” (Critical Outcome Technologies Inc., priority 2007, dated 2012):
pIC50: −log10 of the molar value. Where two headings read alike, the source gives them in different places.

Legend:
[1] = tested on: DMS153; experiment: in vitro IC50 against cancer cell lines, DMS153; type: cell-based; conditions: Homo sapiens, DMS-153, 72 h; DMS153, SCLC, 3 days
Description: (§1) Briefly, cells were plated in plastic tissue culture plates and grown under standard conditions for each cell line, in carbon dioxide/oxygen atmosphere in plastic tissue culture plates, in the presence of COTI-2 or COTI-219 compounds at 35° C. for 3 days. Control cultures were treated with vehicle minus compound. Cells were counted after 3 days in culture and at a cell density of no more than 80%. The following cell lines, obtained from the National Cancer Institute, were tested: human SCLC cell lines DMS153, DMS114, SHP77; human NSCLC cell lines H226, A460, A560; human breast cancer cell lines T47D, MCF7; human colon cancer cell line HT29; and, human Leukemia cell lines K562, HL60.

[2] = tested on: DMS114; experiment: in vitro IC50 against cancer cell lines, DMS114; type: cell-based; conditions: Homo sapiens, DMS-114, 72 h; DMS114, SCLC, 3 days
Description: as §1

[3] = tested on: T47D; experiment: in vitro IC50 against cancer cell lines, T47D; type: cell-based; conditions: Homo sapiens, 72 h, Breast Cancer, 3 days
Description: as §1

[4] = tested on: HT29; experiment: in vitro IC50 against cancer cell lines, HT29; type: cell-based; conditions: Homo sapiens, HT-29, 72 h; HT29, Colorectal Cancer, 3 days
Description: as §1

[5] = tested on: K562; experiment: in vitro IC50 against cancer cell lines, K562; type: cell-based; conditions: Homo sapiens, 72 h; K562, Leukemia, 3 days
Description: as §1

[6] = tested on: HL60; experiment: in vitro IC50 against cancer cell lines, HL60; type: cell-based; conditions: Homo sapiens, HL-60, 72 h; HL60, Leukemia, 3 days
Description: as §1

[7] = tested on: SHP-77 human SCLC cell line tumor xenografts; experiment: Nude mouse model of human SCLC, SHP-77 xenografts; type: in vivo; conditions: IP on alternate days from Day 3, 31 days
Description: The nude mouse model of human SCLC was used to evaluate the in vivo efficacy of compounds of the present invention in comparison with several known chemotherapeutic agents. Nude mice were obtained form the National Cancer Institute and the SHP-77 human SCLC cell line was chosen for metastatic tumor xenografts. The control group consisted of 10 animals, each of which were administered bilateral thigh injections of a prescribed volume of tumor cells. There were 6 treatment groups, each containing 5 animals: COTI-2, COTI-4, COTI-219, Taxotere® (docetaxel), Cisplatin® (cis-diamminedichloroplatinum) and Tarceva® (erlotinib) The therapeutic agent was administered by intraperitoneal (IP) injection on alternate days beginning on Day 3 post tumor cell injection. Each animal in a treatment group was administered bilateral thigh injections with the same prescribed volume of tumor cells as the control animals. Treatment continued for 31 days, following which the animals were euthanized and tissues were collected for subsequent analysis.

[8] = tested on: Standard lab mice; experiment: Escalating dose acute toxicity study in mice; conditions: 4, 8, 16 mg/kg alternate day IP, 28 days
Description: Mice were given alternate day IP injections for 28 days. […] Blood and tissue samples were harvested for histopathology.

[9] = tested on: H1975; experiment: CellTiter-Blue growth inhibition, single agents and combinations, H1975; type: cell-based; conditions: Homo sapiens, read-out: Mean IC50, single agent
Description: (§2) The stock concentration was further diluted to 1 mM and added to a drug plate. […] Following dilution, 2 μl of test agent was transferred to the corresponding wells of a cell-containing 96-well plate with 198 μl of growth media. Tarceva® (erlotinib) was supplied by LC Labs (Woburn, Mass.).
(§3) Viable cell numbers were quantified by the CellTiter-Blue® cell viability assay, which measures the conversion of the indicator dye (resazurin) to resorufin, an indicator of cell viability. Experiments were repeated at least twice with the same concentrations to determine growth inhibitory activity.
(§4) The CI, a numerical value calculated as described in equation A, also provides a quantitative measure of the extent of drug interaction. A CI of less than, equal to, and more than 1 indicates synergy, additivity, and antagonism, respectively. CI=(CAx/ICx,A)+(CB,x/ICx,B) Equation A: Where CA,x and CB,x, are the concentrations of drug A and drug B used in combination to achieve x % drug effect. ICx,A and ICx,B are the concentrations for single agents to achieve the same effect.

[10] = tested on: HT-29; experiment: CellTiter-Blue growth inhibition, single agents and combinations, HT-29; type: cell-based; conditions: Homo sapiens, read-out: Mean IC50, single agent
Description: as §2
as §3, with “Cells were grown to 70% confluency, trypsinized, counted, and seeded in 96-well flat-bottom plates at a final concentration of 2.5×10^3−5×10^3 cells/well (Day 0). […] Viable” for “Viable”
as §4

[11] = tested on: COLO-205; experiment: Tumor cell proliferation, single agents and combinations, COLO-205; type: cell-based, human; conditions: Homo sapiens
Description: (§5) The 3 cell lines were treated as follows:
(§6) Day 1: Cells were plated in 96-well flat bottom plates (VWR, Mississauga, ON, Canada) and allowed to adhere overnight.
(§7) All treated and control cells were, therefore, exposed to a 1% DMSO concentration plus the desired concentration of COTI-2.
as §4

[12] = tested on: SW620; experiment: Tumor cell proliferation, single agents and combinations, SW620; type: cell-based, human; conditions: Homo sapiens
Description: as §5, §6, §7, §4

[13] = target: CYP2C19 (Homo sapiens, UniProt P33261); experiment: in vitro; conditions: both
CYP2C19, sequence (P33261 whole entry): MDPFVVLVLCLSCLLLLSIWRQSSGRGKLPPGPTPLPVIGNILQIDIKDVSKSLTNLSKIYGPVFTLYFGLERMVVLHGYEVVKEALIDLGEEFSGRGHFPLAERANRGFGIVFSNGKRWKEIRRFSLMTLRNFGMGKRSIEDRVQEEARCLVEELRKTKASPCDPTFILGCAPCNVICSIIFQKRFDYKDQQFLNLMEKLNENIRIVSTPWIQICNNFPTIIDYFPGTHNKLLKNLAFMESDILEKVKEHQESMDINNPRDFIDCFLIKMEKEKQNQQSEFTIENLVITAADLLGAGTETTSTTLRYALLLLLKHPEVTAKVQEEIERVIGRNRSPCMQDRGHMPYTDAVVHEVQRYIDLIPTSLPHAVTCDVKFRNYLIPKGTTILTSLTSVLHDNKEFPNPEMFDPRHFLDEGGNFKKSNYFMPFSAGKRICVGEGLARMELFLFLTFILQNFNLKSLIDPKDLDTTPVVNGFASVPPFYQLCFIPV

Row | Structure (SMILES) | pIC50 [1] | pIC50 [2] | pIC50 [3] | pIC50 [4] | pIC50 [5] | pIC50 [6] | average number of tumors per injection site [7] | mean tumor volume [7] | acute toxicity / adverse effects [8] | weight loss [8] | pIC50 ([9]; NCI-H1975, 72 h) | pIC50 ([10]; HT-29, 72 h) | pIC50 ([11]; COLO 205, read-out: Mean IC50, single agent) | pIC50 ([12]; SW-620, read-out: Mean IC50, single agent) | inhibition at 15 min, 10 µM ([13]; human liver microsomes, pH 7.4, probe omeprazole (10 µM)) | inhibition at 15 min, 10 µM ([13]; liver microsomes, pH 7.4, probe omeprazole) | pIC50 ([9]; NCI-H1975, H1975, NSCLC, EGFR - MUT, 72 h) | pIC50 ([10]; HT-29, Colon, KRAS - WT, 72 h) | pIC50 ([11]; COLO-205, Colon, KRAS - WT, read-out: Mean IC50, single agent) | pIC50 ([12]; SW-620, SW620, Colon, KRAS - MUT, read-out: Mean IC50, single agent)
1 | S=C(N/N=C1/CCCc2cccnc21)N1CCN(c2ccccn2)CC1 [COTI-2] | 7.14 | 7.29 | 6.66 | 6.92 | 6.75 | 6.63 | 0.28 | 9.9 mm^3 | No evidence of acute toxicity | None of the drugs produced any weight loss | 8.00 | 6.70 | 8.33 | 6.78 | 4% | < 50% | – | – | – | –
2 | CN1CCN(C(=S)NN=C2c3ncccc3-c3cccnc32)CC1 [COTI-219] | 6.63 | 6.57 | 6.44 | 6.39 | 6.65 | 6.43 | 0.38 | 53+/−28 mm^3 | No evidence of acute toxicity | None of the drugs produced any weight loss | – | – | – | – | – | – | 7.00 | 8.13 | 8.37 | 8.13
